This is an account of results in patent US20030068615A1, “Polypeptides that bind HIV gp120 and related nucleic acids, antibodies, compositions, and methods of use” (priority 1999, published 2003).

The target in the test is HIV-1LAI envelope gp120 (Human immunodeficiency virus type 1 group M subtype B, UniProt P03377). It counts as binding. The settings on record: for Relative % of Control: mean of two syntheses and binding experiments ± average deviation, wild-type = 100%; for number of radioactive decays (counts) counted: human CD4 21-mer scan, empty control 2075; for Counts per 20′ Average-background: CCR5 18-mer scan; for Binding Results For Window Length (counts bound-background), 9: 9-mer starting at the first residue of the printed sequence.

Setting [1] is: STRL33 18-mer scan, background subtracted, first of two count columns.
Where [2] appears, read: STRL33 18-mer scan, background subtracted, second of two count columns.
[3] abbreviates: Panel D, 9-mers and 12-mers of CD4, empty control […].
The mark [4] stands for this setting: CXCR4 18-mer scan, background subtracted, empty control 0.
[5] abbreviates: CXCR4 18-mer scan, empty control 412.
Setting [6] is: Panel C, 15-mers and 18-mers of CD4, empty control 556.
[7] abbreviates: radiolabeled HIV-1LAI gp120, background subtracted.
The mark [8] stands for this setting: STRL33 amino terminus, background subtracted.
Where [9] appears, read: Panel B, 15-mers and 18-mers of CD4, empty control 575.
[10] abbreviates: Panel E, 9-mers and 12-mers of CD4, empty control 571.
Where [11] appears, read: Panel F, sequential alanine replacements of CD4 polypeptides, duplicate series, empty control 569.

Values joined by “and” are separate entries in the source; they are usually repeats but may differ in a detail not shown here. Identical values can stand only once. Like-named read-outs stand apart in the source and are kept apart here.

With “MAVFLLTQMPFNLMKFIR [STRL33 segment 237-254]”, the “radioactive counts recorded in twenty minutes” value (from here on “radioactive counts recorded”) runs as follows: under setting [1], 2263.5 counts; under setting [2], 2842.5 counts.

Consider MEGISIYTSDNYTEEMAS, for which the “Relative % of Control” value (CXCR4 (1-18) alanine variants) worked out at 68 ± 8%.

Consider DQGNFPLIIKNL, for which the “COUNTS of radiolabeled gp120 retained” value under setting [3] came out at 604 counts.

For “AFLQFSKVFLPCMYLVVF [STRL33 segment 25-42]”, the “radioactive counts recorded” value reads like this: under setting [1], 1421.5 counts; under setting [2], 1359.5 counts.

As to CEVEDQKEE, the “COUNTS of radiolabeled gp120 retained” value under setting [3] came out at 555 counts.

Regarding “FACWLPYYIGISIDSFIL [CXCR4 segment 249-266]”, the “radioactive counts recorded” value is 202 counts under setting [4] and 614 counts under setting [5].

For “TDKYRLHLSVADLLFVIT [CXCR4 segment 73-90]”, the “radioactive counts recorded” value turned out to be 92 counts under setting [4] and 504 counts under setting [5].

As to WTCTVLQNQKKVEFK, the “COUNTS of radiolabeled gp120 retained” value under setting [6] was 566 counts.

On to NKEAKVSKREKAVWVLNPEAG, for which the “number of radioactive decays (counts) counted” value (“number of radioactive decays” below) is 1735 counts.

Turning to DQGNFPLII, the “COUNTS of radiolabeled gp120 retained” value under setting [3] is given as 662 counts.

Take “AIVHATNSQRPRKLLAEK [CXCR4 segment 137-154]”: the “radioactive counts recorded” value was 73 counts under setting [4] and 485 counts under setting [5].

For QLLVFGLTA, the “COUNTS of radiolabeled gp120 retained” value under setting [3] is 822 counts.

Consider “EAISTVVLATQMTLGFFL [STRL33 segment 185-202]”, for which the “radioactive counts recorded” value runs as follows: under setting [1], 3973.5 counts; under setting [2], 3745.5 counts.

Take VLAFQKASSIVYKKEGEQ: the “COUNTS of radiolabeled gp120 retained” value under setting [6] is reported as 549 counts.

Turning to “MDYQVSSPIYAINYYTSE [CCR5 (1-18) variant D11A]”, the “Relative % of Control” value (CCR5 (1-18) alanine variants) came out at 63 ± 22%. Under “CCR5 alanine mutant peptide, radiolabeled HIV-1LAI gp120”, the “percentage of binding of mutant polypeptide compared to wild-type polypeptide, gp120” value worked out at 62.8%.

As for APYNIVLLLNTFQEFFGL [CCR5 segment 249-], the “Counts per 20′ Average-background” value under setting [7] is recorded as 1962 counts per 20′.

Turning to VVLAFQKASSIVYKKEGEQVE, the “COUNTS of radiolabeled gp120 retained” value (Panel A, 21-mers of CD4, empty control 515 and 617) is listed as 772 counts.

On to TGLYFIGFFSGIFFIILL, for which, under setting [7], the “Counts per 20′ Average-background” value came out at 80 counts per 20′.

For EHQAFLQFS, the “Binding Results For Window Length (counts bound-background), 9” value under setting [8] is 7505 counts.

For “AQNALTSVSRGSSLKILS [CXCR4 segment 313-330]”, the “radioactive counts recorded” value under setting [4] was determined as 147 counts and the “radioactive counts recorded” value under setting [5] stood at 559 counts.

On to “QKRKALKTTVILILAFFA [CXCR4 segment 233-250]”, for which the “radioactive counts recorded” value by setting is: under setting [4], 283 counts; under setting [5], 695 counts.

With FPLIIKNLKIEDSDT, the “COUNTS of radiolabeled gp120 retained” value under setting [9] was 539 counts.

FKIDIVVLAFQK: under setting [10], the “COUNTS of radiolabeled gp120 retained” value came out at 736 counts.

In the case of “FSKVFLPCMYLVVFVCGL [STRL33 segment 29-46]”, the “radioactive counts recorded” value under setting [1] turned out to be 534.5 counts and the “radioactive counts recorded” value under setting [2] was 633.5 counts.

As to EVQLLVFGLTANSDTHLL, the “COUNTS of radiolabeled gp120 retained” value under setting [9] amounted to 667 counts.

Regarding FPLIIKNLKIEDSDTYIC, under setting [9], the “COUNTS of radiolabeled gp120 retained” value came to 509 counts.

For “MVGLILPGIVILSCYCII [CXCR4 segment 205-222]”, the “radioactive counts recorded” value turned out to be 167 counts under setting [4] and 579 counts under setting [5].

As for KIEDSDTYICEVEDQ, the “COUNTS of radiolabeled gp120 retained” value under setting [9] is recorded as 1088 counts.

As to NLKIEDSDTYIC, the “COUNTS of radiolabeled gp120 retained” value under setting [3] turned out to be 639 counts.

With “SSFNDSSQEEHQAFLQFS [STRL33 segment 13-30]”, the “radioactive counts recorded” value reads like this: under setting [1], 2689.5 counts; under setting [2], 2757.5 counts. The “Binding Results For Window Length (counts bound-background), 9” value under setting [8] came to 243 counts. In addition, the “Binding Results For Window Length (counts bound-background), 12” value (STRL33 amino terminus, 12-mer starting at the first residue of the printed sequence, background subtracted) is listed as 277 counts. In addition, the “Binding Results For Window Length (counts bound-background), 15” value (STRL33 amino terminus, 15-mer starting at the first residue of the printed sequence, background subtracted) was determined as 902 counts. Further, the “Binding Results For Window Length (counts bound-background), 18” value (STRL33 amino terminus, 18-mer starting at the first residue of the printed sequence, background subtracted) was 6038 counts.

With GEQVEFSFPLAF, under setting [10], the “COUNTS of radiolabeled gp120 retained” value came out at 1729 counts.

Regarding VEFKIDIVVLAFQKA, the “COUNTS of radiolabeled gp120 retained” value under setting [6] stood at 1005 counts.

Consider QRPRKLLAEKVVYVGVWI, for which the “radioactive counts recorded” value turned out to be 127 counts under setting [4] and 539 counts under setting [5].

On to KLQMGKKLPLHLTLPQALPQY, for which the “number of radioactive decays” value is listed as 1949 counts.

As for TVEKLTGSGELW, the “COUNTS of radiolabeled gp120 retained” value under setting [10] was 573 counts.

Regarding KEEVQLLVFGLT, under setting [3], the “COUNTS of radiolabeled gp120 retained” value is 1774 counts.

For the sequence EEVQLAVFGLTANSD, under setting [11], the “COUNTS of radiolabeled gp120 retained” value is 11954 counts and 13690 counts.

As for FNLDKLICGYHDEAISTV, the “radioactive counts recorded” value under setting [1] was determined as 1072.5 counts and the “radioactive counts recorded” value under setting [2] stood at 1078.5 counts.

Regarding VTETLGMTHCCINPIIYA [CCR5 segment 281-], under setting [7], the “Counts per 20′ Average-background” value was determined as 15 counts per 20′.

For the sequence VEKLTGSGELWW, under setting [10], the “COUNTS of radiolabeled gp120 retained” value was found to be 477 counts.

On to “VSKREKAVWVLNPEAGMWQCL [human CD4 351-371]”, for which the “number of radioactive decays” value was found to be 2034 counts.

On to KIDIVVLAFQKA, for which, under setting [10], the “COUNTS of radiolabeled gp120 retained” value stood at 689 counts.

Turning to “KKLPLHLTLPQALPQYAGSGN [human CD4 276-296]”, the “number of radioactive decays” value is listed as 1922 counts.

Turning to IIISKLSHSKGHQKRKAL, the “radioactive counts recorded” value reads like this: under setting [4], 157 counts; under setting [5], 569 counts.

For “GLVGNSLVLVISIFYHKL [STRL33 segment 45-62]”, the “radioactive counts recorded” value turned out to be 164.5 counts under setting [1] and 95.5 counts under setting [2].

On to HCCINPIIYAFVGEKFRN [CCR5 segment 289-], for which, under setting [7], the “Counts per 20′ Average-background” value is 200 counts per 20′.

In the case of “NANFNKIFLPTIYSIIFL [CXCR4 segment 33-50]”, the “radioactive counts recorded” value runs as follows: under setting [4], 173 counts; under setting [5], 585 counts.

Regarding FGLTANSDTHLLQGQSLT, the “COUNTS of radiolabeled gp120 retained” value under setting [9] turned out to be 591 counts.

With NFPLIIKNLKIEDSD, the “COUNTS of radiolabeled gp120 retained” value under setting [9] is reported as 654 counts.

Take SSIVYKKEGEQV: under setting [10], the “COUNTS of radiolabeled gp120 retained” value worked out at 615 counts.

ANSDTHLLQ: under setting [3], the “COUNTS of radiolabeled gp120 retained” value was found to be 642 counts.

In the case of FKIDIVVLAFQKASS, the “COUNTS of radiolabeled gp120 retained” value under setting [6] is listed as 1001 counts.

As to EEVQLLVFGLAANSD, the “COUNTS of radiolabeled gp120 retained” value under setting [11] was 18863 counts and 19973 counts.

WDQGNFPLIIKNLKIEDS: under setting [9], the “COUNTS of radiolabeled gp120 retained” value is 626 counts.

In the case of IFFCVRCRHRRRQAERMSQIK, the “number of radioactive decays” value came to 2085 counts.

In the case of NSDTHLLQGQSLTLT, the “COUNTS of radiolabeled gp120 retained” value under setting [9] amounted to 631 counts.

As to LLTQMPFNLMKFIRSTHW, the “radioactive counts recorded” value turned out to be 2513.5 counts under setting [1] and 3154.5 counts under setting [2].

On to TVTFGVVTSVITWVVAVF, for which the “Counts per 20′ Average-background” value under setting [7] is reported as −25 counts per 20′.

Regarding TYICEVEDQKEEVQLLVF, the “COUNTS of radiolabeled gp120 retained” value under setting [9] amounted to 3794 counts.

Consider SQKEGLHYTCSSHFPYSQ [CCR5 segment 169-], for which the “Counts per 20′ Average-background” value under setting [7] is given as 304 counts per 20′.

Take KLTGSGELW: the “COUNTS of radiolabeled gp120 retained” value under setting [10] was determined as 491 counts.

YKKEGEQVEFSFPLA: the “COUNTS of radiolabeled gp120 retained” value under setting [6] came to 687 counts.

“SLKLENKEAKVSKREKAVWVL [human CD4 341-361]”: the “number of radioactive decays” value is reported as 1663 counts.

On to SDTHLLQGQSLT, for which, under setting [3], the “COUNTS of radiolabeled gp120 retained” value is listed as 540 counts.

On to QKASSIVYK, for which, under setting [10], the “COUNTS of radiolabeled gp120 retained” value came to 494 counts.

Take “AFVSLKFRKNFWKLVKDI [STRL33 segment 289-306]”: the “radioactive counts recorded” value was 808.5 counts under setting [1] and 1040.5 counts under setting [2].

With “QLQKNLTCEVWGPTSPKLMLS [human CD4 321-341]”, the “number of radioactive decays” value is on record as 1856 counts.

For the sequence EEVALLVFGLTANSD, the “COUNTS of radiolabeled gp120 retained” value under setting [11] was 10890 counts and 13415 counts.

With “SLKILSKGKRGGHSSVST [CXCR4 segment 325-342]”, the “radioactive counts recorded” value is, setting by setting: under setting [4], 285 counts; under setting [5], 697 counts.

Regarding SSIVYKKEG, under setting [10], the “COUNTS of radiolabeled gp120 retained” value is 515 counts.

On to THLLQGQSLTLT, for which the “COUNTS of radiolabeled gp120 retained” value under setting [3] was determined as 646 counts.

With “SITEALAFFHCCLNPILY [CXCR4 segment 285-302]”, the “radioactive counts recorded” value amounted to 188 counts under setting [4] and 600 counts under setting [5].

As to VFGLTANSD, under setting [3], the “COUNTS of radiolabeled gp120 retained” value is on record as 549 counts.

As for LAFTVEKLTGSGELWWQA, the “COUNTS of radiolabeled gp120 retained” value under setting [6] is 866 counts.

For DTHLLQGQSLTLTLE, the “COUNTS of radiolabeled gp120 retained” value under setting [9] worked out at 1622 counts.

Turning to FVGNMLVILILINCKRLK [CCR5 segment 45-62], under setting [7], the “Counts per 20′ Average-background” value came to 62 counts per 20′.

As for LKIEDSDTYICE, under setting [3], the “COUNTS of radiolabeled gp120 retained” value was found to be 635 counts.
